In the NIST ThermoML archive (doi:10.1021/je900137r):
Numbers after ± are expanded uncertainties.

Test: molar heat capacity at constant volume
Conditions: Liquid, Vacuum adiabatic calorimetry

CCC [propane]
molar heat capacity at constant volume (270.37 K, 19134 kPa): 70.51 ± 1 J/K/mol | molar heat capacity at constant volume (271.33 K, 19881 kPa): 70.43 ± 1 J/K/mol | molar heat capacity at constant volume (272.95 K, 21136 kPa): 70.81 ± 1 J/K/mol | molar heat capacity at constant volume (273.9 K, 21877 kPa): 70.9 ± 1 J/K/mol | molar heat capacity at constant volume (275.54 K, 23127 kPa): 70.92 ± 1 J/K/mol | molar heat capacity at constant volume (276.18 K, 3327 kPa): 70.24 ± 1 J/K/mol | molar heat capacity at constant volume (276.48 K, 23865 kPa): 71.62 ± 1 J/K/mol | molar heat capacity at constant volume (276.56 K, 3559 kPa): 70.86 ± 1 J/K/mol | molar heat capacity at constant volume (278.12 K, 25101 kPa): 71.49 ± 1 J/K/mol | molar heat capacity at constant volume (278.85 K, 5025 kPa): 70.73 ± 1 J/K/mol | molar heat capacity at constant volume (279.04 K, 25835 kPa): 72.09 ± 1 J/K/mol | molar heat capacity at constant volume (279.23 K, 5297 kPa): 71.29 ± 1 J/K/mol | molar heat capacity at constant volume (280.7 K, 27065 kPa): 72.08 ± 1 J/K/mol | molar heat capacity at constant volume (281.51 K, 6761 kPa): 71.44 ± 1 J/K/mol | molar heat capacity at constant volume (281.61 K, 27786 kPa): 72.29 ± 1 J/K/mol | molar heat capacity at constant volume (281.9 K, 7032 kPa): 70.95 ± 1 J/K/mol | molar heat capacity at constant volume (283.29 K, 29020 kPa): 72.18 ± 1 J/K/mol | molar heat capacity at constant volume (284.18 K, 8508 kPa): 71.57 ± 1 J/K/mol | molar heat capacity at constant volume (284.19 K, 29713 kPa): 72.65 ± 1 J/K/mol | molar heat capacity at constant volume (284.58 K, 8760 kPa): 71.75 ± 1 J/K/mol | molar heat capacity at constant volume (285.87 K, 30962 kPa): 72.47 ± 1 J/K/mol | molar heat capacity at constant volume (286.77 K, 31632 kPa): 72.64 ± 1 J/K/mol | molar heat capacity at constant volume (286.85 K, 10247 kPa): 71.76 ± 1 J/K/mol | molar heat capacity at constant volume (287.26 K, 10490 kPa): 72.25 ± 1 J/K/mol | molar heat capacity at constant volume (288.45 K, 32894 kPa): 72.96 ± 1 J/K/mol | molar heat capacity at constant volume (289.34 K, 33552 kPa): 73.33 ± 1 J/K/mol | molar heat capacity at constant volume (289.52 K, 11964 kPa): 71.92 ± 1 J/K/mol | molar heat capacity at constant volume (289.95 K, 12212 kPa): 72.29 ± 1 J/K/mol | molar heat capacity at constant volume (292.2 K, 13671 kPa): 72.85 ± 1 J/K/mol | molar heat capacity at constant volume (292.64 K, 13928 kPa): 73.17 ± 1 J/K/mol | molar heat capacity at constant volume (294.88 K, 15364 kPa): 73.57 ± 1.1 J/K/mol | molar heat capacity at constant volume (295.34 K, 15644 kPa): 73.82 ± 1.1 J/K/mol | molar heat capacity at constant volume (297.56 K, 17055 kPa): 74.47 ± 1.1 J/K/mol | molar heat capacity at constant volume (298.05 K, 17358 kPa): 74.2 ± 1.1 J/K/mol | molar heat capacity at constant volume (300.26 K, 18750 kPa): 74.37 ± 1.1 J/K/mol | molar heat capacity at constant volume (300.73 K, 2939 kPa): 74.37 ± 1.1 J/K/mol | molar heat capacity at constant volume (300.76 K, 19068 kPa): 74.45 ± 1.1 J/K/mol | molar heat capacity at constant volume (301.58 K, 3377 kPa): 74.41 ± 1.1 J/K/mol | molar heat capacity at constant volume (301.67 K, 3419 kPa): 74.62 ± 1.1 J/K/mol | molar heat capacity at constant volume (302.95 K, 20442 kPa): 74.16 ± 1.1 J/K/mol | molar heat capacity at constant volume (303.48 K, 20773 kPa): 74.78 ± 1.1 J/K/mol | molar heat capacity at constant volume (303.54 K, 4354 kPa): 74.77 ± 1.1 J/K/mol | molar heat capacity at constant volume (304.37 K, 4801 kPa): 74.97 ± 1.1 J/K/mol | molar heat capacity at constant volume (304.51 K, 4850 kPa): 74.76 ± 1.1 J/K/mol | molar heat capacity at constant volume (305.65 K, 22131 kPa): 75.52 ± 1.1 J/K/mol | molar heat capacity at constant volume (306.2 K, 22473 kPa): 75.56 ± 1.1 J/K/mol | molar heat capacity at constant volume (306.36 K, 5801 kPa): 74.54 ± 1.1 J/K/mol | molar heat capacity at constant volume (307.19 K, 6235 kPa): 74.97 ± 1.1 J/K/mol | molar heat capacity at constant volume (307.35 K, 6310 kPa): 75.3 ± 1.1 J/K/mol | molar heat capacity at constant volume (308.37 K, 23829 kPa): 76.01 ± 1.1 J/K/mol | molar heat capacity at constant volume (308.94 K, 24172 kPa): 76.12 ± 1.1 J/K/mol | molar heat capacity at constant volume (309.19 K, 7252 kPa): 75.53 ± 1.1 J/K/mol | molar heat capacity at constant volume (310.01 K, 7669 kPa): 75.56 ± 1.1 J/K/mol | molar heat capacity at constant volume (310.22 K, 7778 kPa): 75.78 ± 1.1 J/K/mol | molar heat capacity at constant volume (311.08 K, 25517 kPa): 76.58 ± 1.1 J/K/mol | molar heat capacity at constant volume (311.68 K, 25869 kPa): 76.11 ± 1.1 J/K/mol | molar heat capacity at constant volume (312.04 K, 8706 kPa): 75.83 ± 1.1 J/K/mol | molar heat capacity at constant volume (312.85 K, 9104 kPa): 76.02 ± 1.1 J/K/mol | molar heat capacity at constant volume (313.1 K, 9241 kPa): 76.23 ± 1.1 J/K/mol | molar heat capacity at constant volume (313.82 K, 27203 kPa): 77.38 ± 1.1 J/K/mol | molar heat capacity at constant volume (314.43 K, 27556 kPa): 77.06 ± 1.1 J/K/mol | molar heat capacity at constant volume (314.91 K, 10151 kPa): 75.71 ± 1.1 J/K/mol | molar heat capacity at constant volume (315.69 K, 10543 kPa): 77.05 ± 1.1 J/K/mol | molar heat capacity at constant volume (316 K, 10697 kPa): 76.49 ± 1.1 J/K/mol | molar heat capacity at constant volume (316.58 K, 28887 kPa): 76.95 ± 1.1 J/K/mol | molar heat capacity at constant volume (317.18 K, 29242 kPa): 77.79 ± 1.1 J/K/mol | molar heat capacity at constant volume (317.79 K, 11598 kPa): 77.05 ± 1.1 J/K/mol | molar heat capacity at constant volume (318.56 K, 11984 kPa): 77.31 ± 1.1 J/K/mol | molar heat capacity at constant volume (318.91 K, 12158 kPa): 77.07 ± 1.1 J/K/mol | molar heat capacity at constant volume (319.33 K, 30553 kPa): 77.02 ± 1.1 J/K/mol | molar heat capacity at constant volume (319.67 K, 2142 kPa): 76.76 ± 1.1 J/K/mol | molar heat capacity at constant volume (319.95 K, 30930 kPa): 77.48 ± 1.1 J/K/mol | molar heat capacity at constant volume (320.71 K, 13058 kPa): 77.4 ± 1.1 J/K/mol | molar heat capacity at constant volume (321.3 K, 2771 kPa): 77.58 ± 1.1 J/K/mol | molar heat capacity at constant volume (321.43 K, 13428 kPa): 77.25 ± 1.1 J/K/mol | molar heat capacity at constant volume (321.83 K, 13623 kPa): 76.95 ± 1.1 J/K/mol | molar heat capacity at constant volume (322.1 K, 32227 kPa): 78.59 ± 1.1 J/K/mol | molar heat capacity at constant volume (322.71 K, 3326 kPa): 77.29 ± 1.1 J/K/mol | molar heat capacity at constant volume (322.73 K, 32614 kPa): 78 ± 1.1 J/K/mol | molar heat capacity at constant volume (323.62 K, 14518 kPa): 78.11 ± 1.1 J/K/mol | molar heat capacity at constant volume (324.31 K, 14874 kPa): 77.39 ± 1.1 J/K/mol | molar heat capacity at constant volume (324.35 K, 3977 kPa): 78.06 ± 1.1 J/K/mol | molar heat capacity at constant volume (324.77 K, 15094 kPa): 77.5 ± 1.1 J/K/mol | molar heat capacity at constant volume (324.91 K, 33925 kPa): 78.84 ± 1.1 J/K/mol | molar heat capacity at constant volume (325.78 K, 4543 kPa): 78.25 ± 1.1 J/K/mol | molar heat capacity at constant volume (326.57 K, 15995 kPa): 78.02 ± 1.1 J/K/mol | molar heat capacity at constant volume (327.22 K, 16325 kPa): 78.34 ± 1.1 J/K/mol | molar heat capacity at constant volume (327.42 K, 5191 kPa): 78.96 ± 1.1 J/K/mol | molar heat capacity at constant volume (327.73 K, 16576 kPa): 78.56 ± 1.1 J/K/mol | molar heat capacity at constant volume (328.88 K, 5770 kPa): 78.35 ± 1.1 J/K/mol | molar heat capacity at constant volume (329.52 K, 17472 kPa): 78.67 ± 1.1 J/K/mol | molar heat capacity at constant volume (330.15 K, 17784 kPa): 78.59 ± 1.1 J/K/mol | molar heat capacity at constant volume (330.51 K, 6416 kPa): 78.78 ± 1.1 J/K/mol | molar heat capacity at constant volume (330.7 K, 18059 kPa): 79.38 ± 1.1 J/K/mol | molar heat capacity at constant volume (331.99 K, 6999 kPa): 78.63 ± 1.1 J/K/mol | molar heat capacity at constant volume (332.5 K, 18957 kPa): 79.25 ± 1.1 J/K/mol | molar heat capacity at constant volume (333.09 K, 19244 kPa): 78.85 ± 1.1 J/K/mol | molar heat capacity at constant volume (333.62 K, 7647 kPa): 78.71 ± 1.1 J/K/mol | molar heat capacity at constant volume (333.68 K, 19542 kPa): 80.2 ± 1.1 J/K/mol | molar heat capacity at constant volume (335.12 K, 8240 kPa): 79.2 ± 1.1 J/K/mol | molar heat capacity at constant volume (335.5 K, 20439 kPa): 79.93 ± 1.1 J/K/mol | molar heat capacity at constant volume (336.05 K, 20709 kPa): 79.2 ± 1.1 J/K/mol | molar heat capacity at constant volume (336.7 K, 21027 kPa): 80.28 ± 1.1 J/K/mol | molar heat capacity at constant volume (336.76 K, 8887 kPa): 79.06 ± 1.1 J/K/mol | molar heat capacity at constant volume (338.28 K, 9489 kPa): 80.76 ± 1.1 J/K/mol | molar heat capacity at constant volume (338.52 K, 21926 kPa): 80.26 ± 1.1 J/K/mol | molar heat capacity at constant volume (339.05 K, 22184 kPa): 80.79 ± 1.1 J/K/mol | molar heat capacity at constant volume (339.73 K, 22511 kPa): 80.76 ± 1.1 J/K/mol | molar heat capacity at constant volume (339.92 K, 10135 kPa): 80.44 ± 1.1 J/K/mol | molar heat capacity at constant volume (341.46 K, 10747 kPa): 81.71 ± 1.2 J/K/mol | molar heat capacity at constant volume (341.56 K, 23408 kPa): 80.54 ± 1.1 J/K/mol | molar heat capacity at constant volume (342.07 K, 23667 kPa): 81.31 ± 1.2 J/K/mol | molar heat capacity at constant volume (342.79 K, 24013 kPa): 81.23 ± 1.1 J/K/mol | molar heat capacity at constant volume (343.1 K, 11393 kPa): 80.84 ± 1.1 J/K/mol | molar heat capacity at constant volume (344.62 K, 24907 kPa): 81.87 ± 1.2 J/K/mol | molar heat capacity at constant volume (344.67 K, 12011 kPa): 81.35 ± 1.2 J/K/mol
